The supplement of paper PMC12350171

What was measured:
[1] = system: Bacteroides fragilis NT; assay: IC25 growth inhibition; higher = less potent
Method in brief: (§1)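 Overnight monocultures grown in mGAM were moved into pre-reduced plates containing twofold drug dilutions, at a starting OD578 of 0.01 with 1% DMSO (or water). Plates were kept anaerobic and read hourly at OD578 in a plate reader, with at least three biological replicates. For each concentration, the median area under the growth curve was made monotonic, and IC25 was the lowest concentration whose median fell below a cutoff, reported as a tested interval. That cutoff was 0.75.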

[2] = system: Bacteroides thetaiotaomicron; assay: IC25 growth inhibition; higher = less potent
Method in brief: as §1

[3] = system: Bacteroides uniformis; assay: IC25 growth inhibition; higher = less potent
Method in brief: as §1

[4] = system: Bacteroides vulgatus; assay: IC25 growth inhibition; higher = less potent
Method in brief: as §1

[5] = system: Collinsella aerofaciens; assay: IC25 growth inhibition; higher = less potent
Method in brief: as §1

[6] = system: Coprococcus comes; assay: IC25 growth inhibition; higher = less potent
Method in brief: as §1

[7] = system: Dorea formicigenerans; assay: IC25 growth inhibition; higher = less potent
Method in brief: as §1

[8] = system: Escherichia coli ED1a; assay: IC25 growth inhibition; higher = less potent
Method in brief: as §1

[9] = system: Eubacterium rectale; assay: IC25 growth inhibition; higher = less potent
Method in brief: as §1

[10] = system: Fusobacterium nucleatum subsp. Nucleatum; assay: IC25 growth inhibition; higher = less potent
Method in brief: as §1

[11] = system: Parabacteroides merdae; assay: IC25 growth inhibition; higher = less potent
Method in brief: as §1

[12] = system: Roseburia intestinalis; assay: IC25 growth inhibition; higher = less potent
Method in brief: as §1

[13] = system: Ruminococcus gnavus; assay: IC25 growth inhibition; higher = less potent
Method in brief: as §1

[14] = system: Salmonella enterica typhimurium; assay: IC25 growth inhibition; higher = less potent
Method in brief: as §1

[15] = system: Shigella flexneri; assay: IC25 growth inhibition; higher = less potent
Method in brief: as §1

[16] = system: Streptococcus parasanguinis; assay: IC25 growth inhibition; higher = less potent
Method in brief: as §1

[17] = system: Streptococcus salivarius; assay: IC25 growth inhibition; higher = less potent
Method in brief: as §1

[18] = system: Vibrio cholerae; assay: IC25 growth inhibition; higher = less potent
Method in brief: as §1

[19] = system: Yersinia enterocolitica WA-314; assay: IC25 growth inhibition; higher = less potent
Method in brief: as §1

[20] = system: Yersinia pseudotuberculosis; assay: IC25 growth inhibition; higher = less potent
Method in brief: as §1

[21] = system: Clostridium bolteae; assay: IC25 growth inhibition; higher = less potent
Method in brief: as §1

[22] = system: Clostridium perfringens; assay: IC25 growth inhibition; higher = less potent
Method in brief: as §1

[23] = system: Clostridium ramosum; assay: IC25 growth inhibition; higher = less potent
Method in brief: as §1

[24] = system: Clostridium saccharolyticum; assay: IC25 growth inhibition; higher = less potent
Method in brief: as §1

[25] = system: Com21 synthetic gut community; assay: community biomass OD578 after 24 h drug treatment relative to untreated (fraction of untreated control); higher = more community growth; settings: community: Com21 (Com20 + E. coli ED1a)
Method: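 Com21 (Com20 plus E. coli ED1a) was treated with drug for 24 h under anaerobic conditions in mGAM. Community OD578 was then measured and normalised to untreated Com21; mean of 3 biological replicates.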

[26] = drug pretreatment concentration 10 µM
[27] = drug pretreatment concentration 20 µM
[28] = drug pretreatment concentration 40 µM
[29] = drug pretreatment concentration 80 µM
[30] = drug pretreatment concentration 160 µM
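Throughout, for IC25 growth inhibition: lowest concentration where monotonic median growth AUC falls below 0.75 of drug-free control.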

| SMILES | IC25 growth inhibition [1] | IC25 growth inhibition [2] | IC25 growth inhibition [3] | IC25 growth inhibition [4] | IC25 growth inhibition [5] | IC25 growth inhibition [6] | IC25 growth inhibition [7] | IC25 growth inhibition [8] | IC25 growth inhibition [9] | IC25 growth inhibition [10] | IC25 growth inhibition [11] | IC25 growth inhibition [12] | IC25 growth inhibition [13] | IC25 growth inhibition [14] | IC25 growth inhibition [15] | IC25 growth inhibition [16] | IC25 growth inhibition [17] | IC25 growth inhibition [18] | IC25 growth inhibition [19] | IC25 growth inhibition [20] | IC25 growth inhibition [21] | IC25 growth inhibition [22] | IC25 growth inhibition [23] | IC25 growth inhibition [24] | community biomass OD578 [25, 26] | community biomass OD578 [25, 27] | community biomass OD578 [25, 28] | community biomass OD578 [25, 29] | community biomass OD578 [25, 30] |
| --- | --- | --- | --- | --- | --- | --- | --- | --- | --- | --- | --- | --- | --- | --- | --- | --- | --- | --- | --- | --- | --- | --- | --- | --- | --- | --- | --- | --- | --- |
| CCOC(=O)C1=C(COCCN)NC(C)=C(C(=O)OC)C1c1ccccc1Cl (stereo not drawn) [Amlodipine] | ≤ 80 µM | ≤ 80 µM | ≤ 80 µM | ≤ 40 µM | ≤ 80 µM | > 80 µM | ≤ 40 µM | > 80 µM | ≤ 80 µM | ≤ 80 µM | ≤ 80 µM | ≤ 40 µM | ≤ 80 µM | > 80 µM | > 80 µM | > 80 µM | ≤ 40 µM | > 80 µM | > 80 µM | > 80 µM | – | – | – | – | – | – | – | – | – |
| O=C1CCc2ccc(OCCCCN3CCN(c4cccc(Cl)c4Cl)CC3)cc2N1 [Aripiprazole] | > 160 µM | > 160 µM | > 160 µM | > 160 µM | > 160 µM | > 160 µM | > 160 µM | > 160 µM | > 160 µM | > 160 µM | > 160 µM | > 160 µM | > 160 µM | > 80 µM | > 160 µM | > 80 µM | > 80 µM | > 160 µM | > 160 µM | > 40 µM | > 160 µM | > 160 µM | > 160 µM | > 160 µM | – | – | – | – | – |
| CC[C@H](C)[C@H]1O[C@]2(C=C[C@@H]1C)C[C@@H]1C[C@@H](C/C=C(\C)[C@@H](O[C@H]3C[C@H](OC)[C@@H](O[C@H]4C[C@H](OC)[C@@H](O)[C@H](C)O4)[C@H](C)O3)[C@@H](C)/C=C/C=C3\CO[C@@H]4[C@H](O)C(C)=C[C@@H](C(=O)O1)[C@]34O)O2.CO[C@H]1C[C@H](O[C@H]2[C@H](C)O[C@@H](O[C@@H]3/C(C)=C/C[C@@H]4C[C@@H](C[C@]5(C=C[C@H](C)[C@@H](C(C)C)O5)O4)OC(=O)[C@@H]4C=C(C)[C@@H](O)[C@H]5OC/C(=C\C=C\[C@@H]3C)[C@]54O)C[C@@H]2OC)O[C@@H](C)[C@@H]1O [Avermectin B1] | ≤ 10 µM | ≤ 20 µM | ≤ 20 µM | ≤ 10 µM | ≤ 10 µM | ≤ 20 µM | ≤ 5 µM | > 160 µM | ≤ 10 µM | > 40 µM | ≤ 10 µM | ≤ 2.5 µM | ≤ 10 µM | > 80 µM | > 20 µM | ≤ 20 µM | ≤ 10 µM | > 20 µM | > 10 µM | > 10 µM | ≤ 40 µM | ≤ 10 µM | ≤ 40 µM | ≤ 80 µM | – | – | – | – | – |
| CC[C@H]1OC(=O)[C@H](C)[C@@H](O[C@H]2C[C@@](C)(OC)[C@@H](O)[C@H](C)O2)[C@H](C)[C@@H](O[C@@H]2O[C@H](C)C[C@H](N(C)C)[C@H]2O)[C@](C)(OC)C[C@@H](C)C(=O)[C@H](C)[C@@H](O)[C@]1(C)O [Clarithromycin] | < 1.25 µM | < 1.25 µM | < 1.25 µM | < 1.25 µM | < 1.25 µM | < 1.25 µM | < 1.25 µM | ≤ 40 µM | < 1.25 µM | ≤ 5 µM | < 1.25 µM | < 1.25 µM | < 1.25 µM | ≤ 40 µM | ≤ 10 µM | < 1.25 µM | < 1.25 µM | < 1.25 µM | ≤ 5 µM | > 160 µM | < 1.25 µM | < 1.25 µM | < 1.25 µM | < 1.25 µM | – | – | – | – | – |
| CCC[C@@H]1C[C@@H](C(=O)N[C@@H]([C@H]2O[C@H](SC)[C@H](O)[C@@H](O)[C@H]2O)[C@H](C)Cl)N(C)C1 [Clindamycin] | – | – | – | – | – | – | – | – | – | – | – | – | – | – | – | – | – | – | – | – | – | – | – | – | 0.263 | 0.273 | 0.238 | 0.158 | 0.062 |
| CCN(CC)CCOc1ccc(C(=C(Cl)c2ccccc2)c2ccccc2)cc1 [Clomifen] | ≤ 40 µM | ≤ 40 µM | ≤ 40 µM | ≤ 40 µM | ≤ 20 µM | ≤ 40 µM | ≤ 10 µM | > 160 µM | ≤ 40 µM | ≤ 80 µM | ≤ 40 µM | ≤ 20 µM | ≤ 10 µM | > 160 µM | > 80 µM | ≤ 80 µM | ≤ 40 µM | ≤ 80 µM | > 80 µM | > 40 µM | ≤ 80 µM | ≤ 40 µM | ≤ 40 µM | ≤ 40 µM | – | – | – | – | – |
| CCN(CC)CCOc1ccc(C(=C(Cl)c2ccccc2)c2ccccc2)cc1 [Clomiphene] | – | – | – | – | – | – | – | – | – | – | – | – | – | – | – | – | – | – | – | – | – | – | – | – | 0.947 | 0.955 | 0.845 | 0.398 | 0.335 |
| CCOC(=O)C1=C(C)NC(C)=C(C(=O)OC)C1c1cccc(Cl)c1Cl (stereo not drawn) [Felodipine] | ≤ 20 µM | ≤ 40 µM | ≤ 20 µM | ≤ 20 µM | ≤ 40 µM | > 40 µM | ≤ 20 µM | > 40 µM | ≤ 20 µM | > 40 µM | ≤ 40 µM | ≤ 10 µM | ≤ 40 µM | > 20 µM | > 80 µM | ≤ 40 µM | ≤ 10 µM | > 80 µM | > 20 µM | > 80 µM | – | – | – | – | – | – | – | – | – |
| CNCCC(Oc1ccc(C(F)(F)F)cc1)c1ccccc1 (stereo not drawn) [Fluoxetine] | ≤ 160 µM | ≤ 160 µM | ≤ 80 µM | ≤ 80 µM | ≤ 160 µM | ≤ 160 µM | ≤ 40 µM | > 160 µM | ≤ 40 µM | ≤ 80 µM | ≤ 80 µM | ≤ 80 µM | ≤ 80 µM | > 160 µM | > 160 µM | > 160 µM | ≤ 80 µM | ≤ 160 µM | ≤ 160 µM | ≤ 160 µM | > 160 µM | ≤ 160 µM | > 160 µM | ≤ 160 µM | – | – | – | – | – |
| CN(C)C(=O)C(CCN1CCC(O)(c2ccc(Cl)cc2)CC1)(c1ccccc1)c1ccccc1 [Loperamide] | ≤ 80 µM | ≤ 80 µM | ≤ 80 µM | ≤ 80 µM | ≤ 80 µM | > 80 µM | ≤ 80 µM | > 160 µM | ≤ 40 µM | > 80 µM | ≤ 80 µM | ≤ 40 µM | ≤ 80 µM | > 80 µM | > 80 µM | > 80 µM | > 80 µM | > 80 µM | > 80 µM | > 80 µM | > 80 µM | > 80 µM | > 80 µM | > 80 µM | – | – | – | – | – |
| Cc1c(N(C)CS(=O)(=O)O)c(=O)n(-c2ccccc2)n1C [Metamizol] | > 160 µM | > 160 µM | > 160 µM | > 160 µM | > 160 µM | > 160 µM | > 160 µM | > 160 µM | > 160 µM | > 160 µM | > 160 µM | > 160 µM | > 160 µM | > 160 µM | > 160 µM | > 160 µM | > 160 µM | > 160 µM | > 160 µM | > 160 µM | > 160 µM | > 160 µM | > 160 µM | > 160 µM | – | – | – | – | – |
